In data set [1] the test system is E. coli DP10 expressing MevT gene constructs. Briefly: Fatty acid supplementation of growth inhibited cells, 96-well plates, OD. Type of data set: cell-based. The note with it: 100 μg/ml fatty acid with 400 μg/ml Brij, defined C medium, 96-well plate, arabinose induced; for growth of MevT expressing cells (pBad33MevT): E. coli DP10 pBad33MevT; for growth of cells containing pHMGS: E. coli DP10 pHMGS. The procedure:
Media components and chemicals were purchased from Sigma-Aldrich (St. Louis, Mo.) and Fisher Scientific (Pittsburgh, Pa.). For cloning and propagation of E. coli strains harboring the various recombinant pathways, Luria broth with Miller's modification (Sigma) was used with appropriate antibiotics for plasmid selection and 0.06% glucose for the repression of PBAD and PLAC promoter systems. DL-mevalonate used for media supplementation was prepared by mixing 1 volume of 2 M DL-mevalonic acid lactone (Sigma-Aldrich) with 1.02 volumes of 2 M KOH and incubating at 37° C. for 30 min. Campos et al. (2001) Biochem J 353, 59-67. […] Enzymes for molecular biology were purchased from New England Biolabs (Beverly, Mass.) and Invitrogen. E. coli strains TOP 10 and DH10B, both from Invitrogen, were used for cloning and plasmid construction.
The optical density of samples taken from cultures in baffled flasks was measured using a UV-Spectrophotometer (Beckman), while the OD600 of cultures in 96-well microtiter plates was measured using a microtiter plate reader (SpectraMax, Molecular Devices).
E. coli DP10 cells harboring pBad33, pBad33MevT, pMevT(C159A), pHMGS, or pHMGSR were incubated and induced in 96-well plates in fully defined C medium containing 50 μg/ml chloramphenicol (see material and methods) with supplemental cis-Δ^9-18:1, 16:0, cis-Δ^9-16:1, or a equal mass mixture of 16:0 and cis-Δ^9-16:1. […] Overnight starter cultures were used to inoculate fresh C medium in a 96-well microtiter plate.

Data set [2] deals with temperature sensitive mutants of fabB. The following applies: Broekman and Steenbakkers 1973; cited from earlier work.
Data set [3] deals with E. coli strains carrying a temperature sensitive fabD allele. The following applies: Harder et al. 1972, 1974; cited from earlier work.
In data set [4] the test system is E. coli DH10B harboring pBad33MevT or pBad33. The note with it: LB with 10 g/L NaCl vs 0.5 g/L NaCl.
Protocol: To further test if cells inhibited by the accumulation of HMG-CoA are suffering from osmotic stress, cells harboring pBad33MevT or pBad33 (the empty vector control) were incubated and induced in Luria Broth (LB) media with low (0.5 g/L) and high (10 g/L) concentrations of NaCl. […] Both culture media were supplemented with 1% (wt/vol) glycerol and 50 μg/ml chloramphenicol. Starter cultures of DH10B harboring either pBad33MevT or pBad33 were inoculated from single colonies and incubated overnight at 37° C. in LB media supplemented with 0.06% glucose (to repress the PBAD promoter) and chloramphenicol. Overnight starter cultures were diluted to an OD600 of 0.05 in either the low or high NaCl media in baffled shake flasks, incubated at 37° C. with continuous shaking and induced with the addition of 2 mM arabinose at an OD600 of approximately 0.39. The optical density of the culture was measured using a UV-Spectrophotometer (Beckman).
The test system of data set [5] is E. coli DH10B containing plasmids pMevT, pMBIS, and pADS. Briefly: Amorpha-4,11-diene production assay with mevalonate supplementation (GC-MS of dodecane overlay). The following applies: exogenous mevalonate added, tested up to 20 mM D,L-mevalonate; vs no supplementation. Type of data set: cell-based. The procedure:
Amorpha-4,11-diene production from E. coli strains expressing the full heterologous mevalonate pathway and amorphadiene synthase with or […] supplementation was assayed. E. coli DH10B containing plasmids pMevT, pMBIS, and pADS (FIGS. 5A and 5B) were grown in C medium containing 3.4% glycerol, 1% Casamino acids (BD, Franklin Lakes, N.J.), micronutrients, 50 μg/ml carbenicillin, 5 μg/ml tetracycline, and 25 μg/ml chloramphenicol with varying concentrations of exogenous mevalonate. […] Prior to inoculation, an overlay of 20% (v/v) dodecane (Sigma) was added to each culture flask to trap the volatile sesquiterpene product. […]
Dodecane/ethyl acetate extracts were analyzed on a Hewlett-Packard 6890 gas chromatograph-mass spectrometer (GC/MS). […] The resolved samples were analyzed by a Hewlett-Packard model 5973 mass selective detector that monitored ions 189 and 204 m/z. […] Since pure standards of amorpha-4,11-diene are not currently available, the concentrations were quantified in terms of caryophyllene equivalents. A standard curve for caryophyllene was determined, based on a pure standard. […]
To begin improving terpenoid production from engineered E. coli, limiting steps in the engineered pathway to amorphadiene were determined, as described in U.S. Pat. No. 7,183,089, U.S. Provisional Patent Application No. 60/802,266, Pitera et al. Metab Eng 9(2): 193-207 (2007), and as follows. […]

The subject of another data set is E. coli. Briefly: Effect of extra-cellular mevalonate on growth of E. coli. Type of data set: cell-based. The note with it: high extra-cellular concentrations.
For data set [6], the system named is E. coli DP10 containing pBad33MevT, pHMGS or inactive controls. Briefly: Cell growth with increased supplementation of saturated fatty acid 16:0, baffled shake flasks, OD600. Type of data set: cell-based.

Where two headings read alike, the source gives them in different places.

`CCCCCCCC/C=C\CCCCCCCC(=O)O` [cis-Δ^9-18:1, oleic acid]: in data set [1], the “growth of MevT expressing cells (pBad33MevT)” value (“growth … (pBad33MevT)” for short) was “to a lesser extent, cis-Δ^9-18:1 improved the growth”. For the same compound, the “growth under non-permissive conditions” value in data set [2] is given as “can grow”.

`CCCCCC/C=C\CCCCCCCC(=O)O` [cis-Δ^9-16:1, palmitoleic acid]: in data set [1], the “growth … (pBad33MevT)” value is given as “detrimental to the growth” and the “growth of cells containing pHMGS” value is “detrimental to the growth”. Besides, the “growth at non-permissive temperatures” value in data set [3] is recorded as “not”.

Regarding `[Cl-].[Na+]` [NaCl], in data set [4] (DH10B containing pBad33), the “growth of the empty vector control strain” value is given as “did not significantly affect”. Besides, in data set [4] (DH10B, 2 mM arabinose), the “growth inhibition of E. coli cells expressing the MevT operon from pBad33MevT” value is “effectively alleviated the growth inhibition”. Further, the “osmolality of the culture medium” value is, setting by setting: (culture medium containing NaCl at 0.5 g/L) “about 125 mOsm/kg H2O”; (culture medium containing NaCl at 10 g/L) “about 452 mOsm/kg H2O”.

For `CC(O)(CCO)CC(=O)O` (stereo not drawn) [mevalonate], the production of amorphadiene entry in data set [5] was “increased the production of amorphadiene”. For the same compound, the “growth of E. coli” value with E. coli was “no significant effect on the growth”.

As for `CCCCCCCCCCCCCCCC(=O)O` [16:0, palmitic acid (hexadecanoic acid)], in data set [1], the “growth … (pBad33MevT)” value is “improved the growth” and the “growth of cells containing pHMGS” value is given as “clear, positive effect on the growth”. Besides, the “cell growth on increasing the concentration above 100 μg/ml” value in data set [6] (200 μg/ml vs 100 μg/ml, baffled shake flasks) is on record as “no additional effect on cell growth”. In data set [6] (DP10 harboring pMevT(C159A) or pHMGS(C159A), 100 or 200 μg/ml), the “cell growth of the inactive pathway controls” value is given as “not affected”. In addition, the “growth inhibition caused by high expression of the MevT operon” value in data set [6] (E. coli DP10 pBad33MevT, 100 μg/ml with 400 μg/ml Brij, baffled shake flasks) is “completely alleviated the growth inhibition”. Moreover, the “growth of cells expressing HMGS alone” value in data set [6] (E. coli DP10 pHMGS, 100 μg/ml with 400 μg/ml Brij, baffled shake flasks) is reported as “only improving the growth”. Further, in data set [3], the “growth at non-permissive temperatures” value is “shown to grow at non-permissive temperatures”.

Values taken from patent US8114645B2 (priority 2006, dated 2012).
